Measurements: US10316017B2, “COT modulators and methods of use thereof” (Gilead Sciences, Inc., priority 2015, dated 2019)
Like-named read-outs stand apart in the source and are kept apart here.

Tests used:
[1] = system: TNFα production in LPS-stimulated human monocytes; experiment: Cot Monocyte TNFα Cell Based Assay; conditions: Homo sapiens, Monocyte, read-out: EC50 TNF
Procedure, shortened: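 Percent-of-control values derive from TR-FRET ratios of TNFα in spun-down media, referenced to unstimulated and LPS-stimulated wells. Exposure: 1 h compound preincubation, then 50 pg/ml LPS for 4 h, both at 37 °C, with 0.5% final DMSO.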

[2] = biological target: T1, human Cot catalytic domain (30-397 amino acids) (Homo sapiens, UniProt P41279); experiment: High Throughput Cot Biochemical Assay (KinEASE TR-FRET); conditions: read-out: IC50 HTRF
T1 construct: Purified recombinant human Cot catalytic domain (30-397 amino acids) was purchased from Cama Biosciences; purchased Cama Biosciences (so in the source)
Procedure, shortened: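 Phosphorylation of 1 μM XL665-STK3 peptide by 5 nM Cot catalytic domain was measured by time-resolved FRET using a europium […] antibody. ATP was 400 μM; buffer was 10 mM MOPS pH 7.0 with Mg2+ and DTT.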

[3] = TNFα in LPS-stimulated human monocytes
[4] = Cot biochemical HTRF (KinEASE TR-FRET) assay
[5] = LPS-stimulated human monocytes, TNFα TR-FRET
[6] = Cot KinEASE TR-FRET, 400 μM ATP
[7] = Cot KinEASE TR-FRET (HTRF) biochemical assay, 400 μM ATP

T1 sequence (P41279 30-397): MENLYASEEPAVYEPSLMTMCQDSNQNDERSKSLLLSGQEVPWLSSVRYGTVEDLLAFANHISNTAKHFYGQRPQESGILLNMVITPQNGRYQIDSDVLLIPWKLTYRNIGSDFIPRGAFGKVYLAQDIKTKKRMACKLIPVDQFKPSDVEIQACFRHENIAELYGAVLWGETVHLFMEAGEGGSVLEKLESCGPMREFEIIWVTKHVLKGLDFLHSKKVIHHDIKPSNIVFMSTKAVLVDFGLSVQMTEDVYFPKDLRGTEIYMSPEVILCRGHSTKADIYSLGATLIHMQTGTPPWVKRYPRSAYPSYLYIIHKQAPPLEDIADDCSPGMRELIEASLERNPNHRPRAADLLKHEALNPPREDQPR

Row | Compound | EC50 [1, 3] | IC50 [2, 4] | EC50 [1, 5] | IC50 [2, 6] | IC50 [2, 7]
1 | CC(C)(C)N1CCC(n2cc([C@@H](Nc3cc(Cl)c4ncc(C#N)c(Nc5cc(Cl)c(F)cc5F)c4c3)c3ccc(Cl)cc3)nn2)CC1 [Example 693, (S)-6-(((1-(1-(tert-butyl)piperidin-4-yl)-1H-1,2,3-triazol-4-yl)(4-chlorophenyl)methyl)amino)-8-chloro-4-((5-chloro-2,4-difluorophenyl)amino)quinoline-3-carbonitrile] | 1540 nM | 46 nM |  |  | 
2 | [2H][C@](Nc1cc(C#N)c2ncc(C#N)c(NCC(C)(C)C)c2c1)(c1cccc(C#N)c1)c1cn(-c2cccnc2)nn1 [Example 1005, (S)-6-(((3-cyanophenyl)(1-(pyridin-3-yl)-1H-1,2,3-triazol-4-yl)methyl-d)amino)-4-(neopentylamino) quinoline-3,8-dicarbonitrile] |  |  | ≥ 1000 nM | ≥ 10000 nM | 
3 | [2H][C@](Nc1cc(Cl)c2ncc(C#N)c(NCC(C)(C)C)c2c1)(c1ccc(Cl)cc1)c1cn(C2CC2)nn1 [Example 936, (S)-8-chloro-6-(((4-chlorophenyl)(1-cyclopropyl-1H-1,2,3-triazol-4-yl)methyl-d)amino)-4-(neopentylamino) quinoline-3-carbonitrile] |  |  | 222 nM | 12 nM | 
4 | [2H][C@](Nc1cc(-c2cncnc2)c2ncc(C#N)c(N[C@H](CCC(=O)O)c3ccccc3)c2c1)(c1ccc(F)cc1)c1cn(C2CC2)nn1 [Example 950, (R)-4-((3-cyano-6-(((S)-(1-cyclopropyl-1H-1,2,3-triazol-4-yl)(4-fluorophenyl)methyl-d)amino)-8-(pyrimidin-5-yl)quinolin-4-yl)amino)-4-phenylbutanoic acid] |  |  | ≥ 1000 nM | ≥ 10000 nM | 
5 | [2H]C(Nc1cc(Cl)c2ncc(C#N)c(NCC(C)(C)C)c2c1)(c1cn(C2(C(F)(F)F)CC2)nn1)c1ccccc1Cl (centres unmarked) [Example 106, 8-chloro-6-(((2-chlorophenyl) (1-(1-(trifluoromethyl)cyclopropyl)-1H-1,2,3-triazol-4-yl)methyl-d)amino)-4-(neopentylamino) quinoline-3-carbonitrile] | 826 nM |  |  |  | 58 nM
6 | CC(C)(C)CNc1c(C#N)cnc2c(C#N)cc(N[C@@H](c3ccc(F)cc3)c3cn(C4(C#N)CC4)nn3)cc12 [Example 976, (S)-6-(((1-(1-cyanocyclopropyl)-1H-1,2,3-triazol-4-yl)(4-fluorophenyl)methyl)amino)-4-(neopentylamino)quinoline-3,8-dicarbonitrile] |  |  | 58 nM | 6 nM | 
7 | Cc1c(C#N)cccc1[C@H](Nc1cc(Cl)c2ncc(C#N)c(NCC(C)(C)C(F)(F)F)c2c1)c1cn([C@@H](C)CF)nn1 [Example 1106, 8-chloro-6-(((S)-(3-cyano-2-methylphenyl)(1-((S)-1-fluoropropan-2-yl)-1H-1,2,3-triazol-4-yl)methyl)amino)-4-((3,3,3-trifluoro-2,2-dimethylpropyl)amino) quinoline-3-carbonitrile] |  |  | 76 nM | 5 nM | 

More lines, now with the values ahead:

Row | EC50 [1, 3] | IC50 [2, 4] | EC50 [1, 5] | IC50 [2, 6] | IC50 [2, 7] | Compound
8 | 726 nM |  |  |  | 125 nM | CCC(Nc1c(C#N)cnc2c(Cl)cc(N[C@@H](c3ccc(F)cc3)c3c[nH]nn3)cc12)c1ccccc1F (stereo partly drawn) [Example 397, 8-chloro-6-(((S)-(4-fluorophenyl)(1H-1,2,3-triazol-4-yl)methyl)amino)-4-((1-(2-fluorophenyl)propyl)amino) quinoline-3-carbonitrile]
9 | 458 nM | 17 nM |  |  |  | CC[C@@H](Nc1c(C#N)cnc2c(Cl)cc(N[C@@H](c3ccc(F)cc3)c3c[nH]nn3)cc12)c1ccccc1 [Example 537, 8-chloro-6-(((S)-(4-fluorophenyl)(1H-1,2,3-triazol-4-yl)methyl)amino)-4-(((R)-1-phenylpropyl)amino) quinoline-3-carbonitrile]
10 | 58 nM | 3 nM |  |  |  | CC[C@@H](Nc1c(C#N)cnc2c(Cl)cc(N[C@@H](c3ccc(F)cc3)c3cn(C4CCN(C(C)(C)C)CC4)nn3)cc12)c1ccccc1 [Example 538, 6-(((S)-(1-(1-(tert-butyl)piperidin-4-yl)-1H-1,2,3-triazol-4-yl)(4-fluorophenyl)methyl)amino)-8-chloro-4-(((R)-1-phenylpropyl)amino) quinoline-3-carbonitrile]
